In PubChem BioAssay (NCI):
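Test compounds were applied to cells in 96-well plates for 48 hours at 5 doses. TGI: concentration producing complete growth inhibition.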

Tests used:
Assay in all cases: DTP human tumour cell line panel, 48 h
SNB-75 CNS = system: SNB-75 CNS
TK-10 renal = system: TK-10 renal
786-0 renal = system: 786-0 renal
NCI/ADR-RES ovarian = system: NCI/ADR-RES ovarian
SN12C renal = system: SN12C renal
NCI-H226 lung = system: NCI-H226 lung
T-47D breast = system: T-47D breast
LOX IMVI melanoma = system: LOX IMVI melanoma
SNB-19 CNS = system: SNB-19 CNS
SK-MEL-28 melanoma = system: SK-MEL-28 melanoma
ACHN renal = system: ACHN renal
UACC-257 melanoma = system: UACC-257 melanoma
SF-268 CNS = system: SF-268 CNS
BT-549 breast = system: BT-549 breast
HCT-116 colon = system: HCT-116 colon
CAKI-1 renal = system: CAKI-1 renal
NCI-H23 lung = system: NCI-H23 lung
NCI-H460 lung = system: NCI-H460 lung
MDA-N = system: MDA-N
U251 CNS = system: U251 CNS
DU-145 prostate = system: DU-145 prostate
MDA-MB-231 breast = system: MDA-MB-231 breast
HCC-2998 colon = system: HCC-2998 colon
KM12 colon = system: KM12 colon
UACC-62 melanoma = system: UACC-62 melanoma
HCT-15 colon = system: HCT-15 colon
OVCAR-8 ovarian = system: OVCAR-8 ovarian
SR leukemia = system: SR leukemia
CCRF-CEM leukemia = system: CCRF-CEM leukemia
RPMI-8226 leukemia = system: RPMI-8226 leukemia
MDA-MB-435 = system: MDA-MB-435
COLO 205 colon = system: COLO 205 colon
HOP-92 NSCLC = system: HOP-92 NSCLC
OVCAR-4 ovarian = system: OVCAR-4 ovarian
UO-31 renal = system: UO-31 renal
SK-OV-3 ovarian = system: SK-OV-3 ovarian
SF-295 CNS = system: SF-295 CNS
K-562 leukemia = system: K-562 leukemia
HL-60(TB) leukemia = system: HL-60(TB) leukemia
HT29 colon = system: HT29 colon
OVCAR-3 ovarian = system: OVCAR-3 ovarian
IGROV1 ovarian = system: IGROV1 ovarian
SK-MEL-5 melanoma = system: SK-MEL-5 melanoma
M14 melanoma = system: M14 melanoma
A498 renal = system: A498 renal
PC-3 prostate = system: PC-3 prostate
MCF7 breast = system: MCF7 breast
OVCAR-5 ovarian = system: OVCAR-5 ovarian
MALME-3M melanoma = system: MALME-3M melanoma
HS 578T breast = system: HS 578T breast
A549 NSCLC = system: A549 NSCLC
MOLT-4 leukemia = system: MOLT-4 leukemia
NCI-H522 lung = system: NCI-H522 lung
EKVX NSCLC = system: EKVX NSCLC
SF-539 CNS = system: SF-539 CNS
SK-MEL-2 melanoma = system: SK-MEL-2 melanoma
RXF 393 renal = system: RXF 393 renal
HOP-62 NSCLC = system: HOP-62 NSCLC

Measured: TGI

CC1(C)C(=O)C2(N)CCC1C2 (stereo unspecified)
not listed: SK-OV-3 ovarian | SF-295 CNS | K-562 leukemia | HL-60(TB) leukemia | HT29 colon | OVCAR-3 ovarian | IGROV1 ovarian | SK-MEL-5 melanoma | M14 melanoma | A498 renal | PC-3 prostate | MCF7 breast | OVCAR-5 ovarian | MALME-3M melanoma | HS 578T breast | A549 NSCLC | MOLT-4 leukemia | NCI-H522 lung | EKVX NSCLC | SF-539 CNS | SK-MEL-2 melanoma | RXF 393 renal | HOP-62 NSCLC
> 100 µM: all other assays above

O=[N+]([O-])c1cc(C2ON=C(c3ccccc3)N2C23CC4CC(CC(C4)C2)C3)ccc1Cl (stereo unspecified)
93.6 µM: SNB-75 CNS
not listed: BT-549 breast | UACC-62 melanoma
> 100 µM: all other assays above
